Experimental data from patent publication US9435795B2, “Enhanced deposition of chromogens utilizing pyrimidine analogs” (Ventana Medical Systems, Inc., priority 2010, dated 2016).

Legend:
[1] = molecular target: T1, horseradish peroxidase (HRP) (Armoracia rusticana, UniProt P00433); assay: Plate assay: kinetic screening of enhancers of HRP-mediated DAB oxidation (ultraView Detection Kit, OD 455 nm); format: biochemical; details: for Vmax (apparent, HRP-oxidized DAB): no enhancer 18.50; for Percent increase of apparent Vmax of HRP: relative to uView Vmax without enhancement
T1 construct: purchased VMSI (Ventana Medical Systems, Inc.) 760-500: 253-4290, 253-4292 and 253-4293
Procedure: The additives were directly added to a well containing the necessary reagents from the ultraView™ Detection Kit (VMSI 760-500: 253-4290, 253-4292 and 253-4293) in 1× Reaction Buffer (VMSI 950-300) and 0.1% fish gelatin. Fish gelatin was used to help disperse the oxidized DAB and inhibit its precipitation from solution. The ultraView™ Detection Kit was diluted to measure the formation of oxidized DAB by UV-VIS at 455 nm. Additives were tested at set concentrations to determine enhancement in the DAB oxidation reaction. The data were graphed, and the apparent maximum velocity (Vmax) was calculated at each additive concentration level.

[2] = Solubility of additive in reaction buffer / aqueous buffers; format: physicochemical
ultraView HRP multimer = molecular target: T2, ultraView HRP multimer (Armoracia rusticana, UniProt P00433); assay: Michaelis-Menten kinetics of HRP-oxidized DAB with enhanced DAB chromogen mixtures; format: biochemical, horseradish
T2 construct: purchased Ventana Medical Systems (ultraView kit component)
T2 sequence (P00433 31-338 limits assumed): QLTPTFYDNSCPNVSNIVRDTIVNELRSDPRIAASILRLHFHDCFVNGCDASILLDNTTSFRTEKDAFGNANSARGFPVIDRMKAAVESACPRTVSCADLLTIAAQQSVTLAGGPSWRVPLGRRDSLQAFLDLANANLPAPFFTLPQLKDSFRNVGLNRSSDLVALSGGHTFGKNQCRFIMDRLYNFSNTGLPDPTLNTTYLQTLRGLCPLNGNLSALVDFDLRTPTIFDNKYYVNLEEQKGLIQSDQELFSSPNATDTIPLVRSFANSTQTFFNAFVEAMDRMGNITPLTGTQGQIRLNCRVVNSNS
Procedure: To further study the synergistic effect in the increased apparent Vmax for HRP-oxidized DAB, Michaelis-Menten kinetics were calculated for the best enhanced DAB chromogen mixtures in Table 3. […] The definition of Vmax=kcat·[E]total when the enzyme substrate concentration was at saturation levels. When the concentration of enzyme was kept constant, the apparent Vmax is proportional to kcat (the apparent turnover for HRP or the first order rate constant).

bcl2 in tonsil tissue = assay: TSA-IHC tissue staining of bcl2 in tonsil tissue (TA-HQ deposition)
Procedure: Enhanced DAB deposition was evaluated on a TSA-IHC tissue staining of bcl2 in tonsil tissue. […] Tyramide deposition was performed with and without 10 mM 2-hydroxypyrimidine. […] The percent of cells stained with DAB increased in areas with low bcl2 antigen expression. Formalin fixed paraffin embedded tonsil tissue was mounted on Superfrost slides, deparaffinized and antigen retrieved using CC1 bulk reagent (Ventana® p/n 950-124). […] Slides were counterstained using Hematoxylin II (Ventana® p/n 790-2208) and Bluing Reagent (Ventana® p/n760-2037). The slides were dehydrated using gradient alcohols, cover slipped and viewed using a bright field microscope (FIGS. 23-26).

[3] = Compatibility and stability of reformulated DAB Chromogen solution with additive; format: physicochemical; details: higher concentrations of imidazole; 50 mM L-histidine
[4] = molecular target: T1, horseradish peroxidase (HRP); assay: Plate assay: enhancers added sequentially to ultraView Detection Kit (synergistic/antagonistic effects); format: biochemical; details: NMO added to mixture 4; 50 mM L-histidine or 10 mM pyrimidine added to mixture 5
Procedure: The same concentration of reagents from the ultraView™ Detection Kit (VMSI 760-500: 253-4290, 253-4292 and 253-4293) were used in 1× Reaction Buffer™ containing 0.1% fish gelatin for each trial. In each trial, the enhancers were added together one at a time.

[5] = test system: HER-2 positive CaLu3 carcinoma cell lines; assay: ISH tissue staining with HER2 DNA probe on HER-2 3-in-1 mouse xenografts; details: 10 mM in DAB Chromogen solution; CaLu3 carcinoma cells
Procedure: ISH tissue staining was examined using enhanced DAB solutions. HER-2 3-in-1 mouse xenografts of HER-2 positive carcinoma cell lines CaLu3, ZR-75-1 and MCF7 were treated with HER2 DNA probe (VMSI 480-4495) and stained with the ultraView™ DAB Chromogen solution or an enhanced DAB Chromogen solution containing 10 mM L-histidine (see FIGS. 21-22). […] The increased DAB deposition was marginal for the strongest ISH signals, but signal intensity for the weaker DAB signals was raised throughout the tissue. The same observation was made with enhanced DAB deposition in IHC.

[6] = enhancer 50 mM, (sat) = reaction rate saturated by start of UV-VIS analysis
[7] = enhancer 100 mM, (sat) = reaction rate saturated by start of UV-VIS analysis

Structure (SMILES) | Vmax (apparent, HRP-oxidized DAB) ([1]; enhancer 10 mM) [mOD/min] | Vmax (apparent, HRP-oxidized DAB) [1, 6] [mOD/min] | Vmax (apparent, HRP-oxidized DAB) [1, 7] [mOD/min] | Solubility in aqueous buffers (in words) [2] | Vmax (ultraView HRP multimer; enhancer 10 mM in 50 mM imidazole, 10 mM calcium chloride, 10 mM boric acid) [mOD/min] | Tyramide deposition in TSA-IHC staining (in words) (bcl2 in tonsil tissue; 10 mM during tyramide deposition, 8 minute primary Ab incubation) | Percent increase of apparent Vmax of HRP ([1]; enhancer 10 mM) [%] | Percent increase of apparent Vmax of HRP ([1]; enhancer 50 mM) [%] | Precipitation of DAB from reformulated DAB Chromogen solution [3] | Effect on apparent velocity of HRP when added to a preceding assay mixture of Table 2 [4] | Vmax (ultraView HRP multimer; 10 mM buffer salt with 10 mM pyrimidine, no enhancer 228) [mOD/min] | Vmax (ultraView HRP multimer; 50 mM buffer salt with 10 mM 2-hydroxypyrimidine (FIG. 19: also 10 mM boric acid, 10 mM calcium chloride)) [mOD/min] | DAB deposition in ISH staining (in words) [5] | DAB deposition in TSA-IHC staining (in words) (bcl2 in tonsil tissue; 10 mM in DAB Chromogen solution, 16 minute primary Ab incubation)
Oc1ncccn1 [2-Hydroxypyrimidine] | 144.00 | 156.00 | 148.00 | do not have solubility or volatility problems | 320 | increased the tyramide deposition |  |  |  |  |  |  |  | 
N[C@@H](Cc1c[nH]cn1)C(=O)O [L-Histidine] | 21.84 | 44.00 | 72.00 |  |  |  | 18 | 138 | caused the precipitation of DAB | increased the apparent velocity of HRP | 300 | 317 | increased the deposition of DAB | increased the DAB deposition on tissue
